Experiment [1] concerns the target T1, human EP1 receptor (Homo sapiens, UniProt P34995).
T1 construct: expressed in transfected cells; host or cells: CHO-K1
T1 sequence (P34995 1-402): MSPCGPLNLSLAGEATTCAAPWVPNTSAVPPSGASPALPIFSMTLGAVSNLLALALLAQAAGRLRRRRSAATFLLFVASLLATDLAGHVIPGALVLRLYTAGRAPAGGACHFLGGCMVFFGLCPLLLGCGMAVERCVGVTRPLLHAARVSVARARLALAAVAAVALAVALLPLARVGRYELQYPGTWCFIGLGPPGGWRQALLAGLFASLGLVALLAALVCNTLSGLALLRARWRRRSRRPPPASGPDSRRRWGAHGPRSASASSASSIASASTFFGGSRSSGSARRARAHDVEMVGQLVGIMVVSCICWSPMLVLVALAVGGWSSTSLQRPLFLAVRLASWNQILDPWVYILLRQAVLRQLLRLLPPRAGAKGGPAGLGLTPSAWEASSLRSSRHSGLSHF
Nature of the experiment: Binding assay for the human prostanoid EP1 receptor (competition with [3H]-PGE2). As to conditions: binding to human EP1 receptor, CHO-K1 membranes, [3H]-PGE2 3 nM; averages of a number of experiments. The method, then: Competition assay using [^3H]-PGE2.
Compound potencies are determined using a radioligand binding assay. In this assay compound potencies are determined from their ability to compete with tritiated prostaglandin E2 ([^3H]-PGE2) for binding to the human EP1 receptor. This assay utilises Chinese hamster ovary-K1 (CHO-K1) cells into which a stable vector containing the EP1 cDNA has previously been transfected. Cells are cultured in suitable flasks containing culture medium such as DMEM:F-12 supplemented with 10% v/v foetal calf serum, 2 mM L-glutamine, 0.25 mg/ml geneticin, 10 μg/ml puromycin and 10 μM indomethacin.
Cells are detached from the culture flasks by incubation in calcium and magnesium free phosphate buffered saline containing 1 mM disodium ethylenediaminetetraacetic acid (Na2EDTA) and 10 μM indomethacin for 5 min. The cells are isolated by centrifugation at 250×g for 5 mins and suspended in an ice cold buffer such as 50 mM Tris, 1 mM Na2EDTA, 140 mM NaCl, 10 μM indomethacin (pH 7.4). The cells are homogenised using a Polytron tissue disrupter (2×10 s burst at full setting), centrifuged at 48,000×g for 20 mins and the pellet containing the membrane fraction is washed (optional) three times by suspension and centrifugation at 48,000×g for 20 mins. The final membrane pellet is suspended in an assay buffer such as 10 mM 2-[N-morpholino]ethanesulphonic acid, 1 mM Na2EDTA, 10 mM MgCl2 (pH 6). Aliquots are frozen at −80° C. until required.
For the binding assay the cell membranes, competing compounds and [^3H]-PGE2 (3 nM final assay concentration) are incubated in a final volume of 100 μl for 30 min at 30° C. All reagents are prepared in assay buffer. Reactions are terminated by rapid vacuum filtration over GF/B filters using a Brandell cell harvester. The filters are washed with ice cold assay buffer, dried and the radioactivity retained on the filters is measured by liquid scintillation counting in Packard TopCount scintillation counter.
The data are analysed using non linear curve fitting techniques to determine the concentration of compound producing 50% inhibition of specific binding (IC50).

Experiment [2] deals with T1, human EP1 receptor. Nature of the experiment: human EP1 calcium mobilisation assay. The settings on record: human EP1, CHO-K1 cells, PGE2-induced calcium mobilisation; averages of a number of experiments; read-out: functional pKi (converted). The experiment is classed as cell-based. The method, then: Briefly, the antagonist properties of compounds are assessed by their ability to inhibit the mobilisation of intracellular calcium ([Ca^2+]i) in response to activation of EP1 or EP3 receptors by the natural agonist hormone prostaglandin E2 (PGE2). Increasing concentrations of antagonist reduce the amount of calcium that a given concentration of PGE2 can mobilise. The net effect is to displace the PGE2 concentration-effect curve to higher concentrations of PGE2. The amount of calcium produced is assessed using a calcium-sensitive fluorescent dye such as Fluo-4, AM and a suitable instrument such as a Fluorimetric Imaging Plate Reader (FLIPR). Increasing amounts of [Ca^2+]i produced by receptor activation increase the amount of fluorescence produced by the dye and give rise to an increasing signal. The signal may be detected using the FLIPR instrument and the data generated may be analysed with suitable curve-fitting software.
The human EP1 or EP3 calcium mobilisation assay (hereafter referred to as ‘the calcium assay’) utilises Chinese hamster ovary-K1 (CHO-K1) cells into which a stable (pCIN; BioTechniques 20 (1996): 102-110) vector containing either EP1 or EP3 cDNA has previously been transfected. Cells are cultured in suitable flasks containing culture medium such as DMEM:F-12 supplemented with 10% v/v foetal calf serum, 2 mM L-glutamine, 0.25 mg/ml geneticin, 100 μM flurbiprofen and 10 μg/ml puromycin.
For assay, cells are harvested using a proprietary reagent that dislodges cells such as Versene. Cells are re-suspended in a suitable quantity of fresh culture media for introduction into a 384-well plate. Following incubation for 24 hours at 37° C. the culture media is replaced with a medium containing Fluo-4 and the detergent pluronic acid, and a further incubation takes place. Concentrations of compounds are then added to the plate in order to construct concentration-effect curves. This may be performed on the FLIPR in order to assess the agonist properties of the compounds. Concentrations of PGE2 are then added to the plate in order to assess the antagonist properties of the compounds.
The data so generated may be analysed by means of a computerised curve-fitting routine. The concentration of compound that elicits a half-maximal inhibition of the calcium mobilisation induced by PGE2 (pIC50) may then be estimated.
(In general: Calcium flux is commonly read through the fluorescence of an indicator in the cells.)

Each structure is given as a SMILES string. Where a name gives a salt, the structure may show the parent alone.

As to `CC(C)(C)CCc1cn(-c2nc(-c3nc4ccccc4[nH]3)cs2)c2cc(Cl)ccc12` [Example 37, 2-{2-[6-Chloro-3-(3,3-dimethylbutyl)-1H-indol-1-yl]-1,3-thiazol-4-yl}-1H-benzimidazole hydrochloride], the 50% inhibitory concentration (IC50) (in general, the concentration needed to halve the response being measured) in experiment [1] was at most 100 nM.

In the case of `CC(C)c1cn(-c2nc(C(=O)Nc3ccccc3N)cs2)c2cc(Cl)ccc12` [Example 13, N-(2-Aminophenyl)-2-[6-chloro-3-isopropyl-1H-indol-1-yl]-1,3-thiazole-4-carboxamide], in experiment [1], the IC50 was at most 100 nM.

For `CC(C)Cc1cn(-c2nc(NC(=O)C3CCCC3)cs2)c2cc(Cl)ccc12` [Example 3, N-{2-[6-Chloro-3-isobutyl-1H-indol-1-yl]-1,3-thiazol-4-yl}cyclopentanecarboxamide], in experiment [1], the IC50 was at most 100 nM.

`CC(C)Cc1cn(-c2nc(C(=O)Nc3ccc(CO)cc3)cs2)c2cc(Br)ccc12` [Example 12, 2-[6-Bromo-3-isobutyl-1H-indol-1-yl]-N-[4-(hydroxymethyl)phenyl]-1,3-thiazole-4-carboxamide] showed an IC50 in experiment [1] of at most 100 nM. Also, in experiment [2], the Ki was at most 100 nM.

`CC(C)Cc1cn(-c2nc(-c3nc(-c4ccccc4)c[nH]3)cs2)c2cc(Cl)ccc12` [Example 52, 6-Chloro-3-isobutyl-1-[4-(4-phenyl-1H-imidazol-2-yl)-1,3-thiazol-2-yl]-1H-indole]: the Ki in experiment [2] was at most 100 nM.

In experiment [1], `CC(C)Cc1cn(-c2nc(-c3nc4ncccc4[nH]3)cs2)c2cc(Cl)ccc12` [Example 42, 2-{2-[6-Chloro-3-isobutyl-1H-indol-1-yl]-1,3-thiazol-4-yl}-1H-imidazo[4,5-b]pyridine hydrochloride] showed an IC50 of at most 100 nM.

Consider `CC(C)Cc1cn(-c2nc(C(=O)Nc3ccccn3)cs2)c2cc(Cl)ccc12` [Example 27, 2-[6-Chloro-3-isobutyl-1H-indol-1-yl]-N-2-pyridinyl-1,3-thiazole-4-carboxamide], for which the Ki in experiment [2] was at most 100 nM.

As to `CC(C)Cc1cn(-c2nc(C(=O)Nc3cccc(CO)c3)cs2)c2cc(Cl)ccc12` [Example 24, 2-[6-Chloro-3-isobutyl-1H-indol-1-yl]-N-[3-indol-1-yl]N-[3-(hydroxymethyl)phenyl]-1,3-thiazole-4-carboxamide], the Ki in experiment [2] is at most 100 nM.

Turning to `CC(C)Cc1cn(-c2nc(C(=O)Nc3ccc(F)cc3)cs2)c2cc(Cl)ccc12` [Example 29, 2-[6-Chloro-3-isobutyl-1H-indol-1-yl]-N-(4-fluorophenyl)-1,3-thiazole-4-carboxamide], in experiment [2], the Ki was at most 100 nM.

`CC(C)Cc1cn(-c2nc(-c3ncc[nH]3)cs2)c2cc(Cl)ccc12` [Example 47, 6-Chloro-1-[4-(1H-imidazol-2-yl)-1,3-thiazol-2-yl]-3-isobutyl-1H-indole] showed an IC50 in experiment [1] of at most 100 nM.

As to `CC(C)Cc1cn(-c2nc(C(=O)Nc3ccccc3CO)cs2)c2cc(Cl)ccc12` [Example 20, 2-[6-Chloro-3-isobutyl-1H-indol-1-yl]-N-[2-(hydroxymethyl)phenyl]-1,3-thiazole-4-carboxamide], the IC50 in experiment [1] is at most 100 nM. In addition, in experiment [2], the Ki was at most 100 nM.

For the compound `CC(C)Cc1cn(-c2nc(-c3nc4ccccc4[nH]3)cs2)c2cc(Br)ccc12` [Example 38, 2-{2-[6-Bromo-3-isobutyl-1H-indol-1-yl]-1,3-thiazol-4-yl}-1H-benzimidazole hydrochloride], in experiment [1], the IC50 is at most 100 nM. Moreover, the Ki in experiment [2] is at most 100 nM.

Turning to `CC(C)Cc1cn(Cc2nc(C(N)=O)cs2)c2cc(Cl)ccc12` [Example 34, 2-{[6-Chloro-3-isobutyl-1H-indol-1-yl]methyl}-1,3-thiazole-4-carboxamide], the Ki in experiment [2] was at most 100 nM.

`CC(C)Cc1cn(-c2nc(C(=O)Nc3ccc(CO)cc3)cs2)c2cc(Cl)ccc12` [Example 21, 2-[6-Chloro-3-isobutyl-1H-indol-1-yl]-N-[4-(hydroxymethyl)phenyl]-1,3-thiazole-4-carboxamide]: the IC50 in experiment [1] was at most 100 nM.

`CC(C)Cc1cn(-c2nc(-c3nc4ccccc4[nH]3)cs2)c2cc(C(F)(F)F)ccc12` [Example 41, 2-{2-[3-Isobutyl-6-(trifluoromethyl)-1H-indol-1-yl]-1,3-thiazol-4-yl}-1H-benzimidazole] gave an IC50 in experiment [1] of at most 100 nM. For the same compound, the Ki in experiment [2] is at most 100 nM.

With `CC(C)Cc1cn(-c2nc(-c3nc4ccccc4[nH]3)cs2)c2cc(Cl)ccc12` [Example 35, 2-{2-[6-Chloro-3-isobutyl-1H-indol-1-yl]-1,3-thiazol-4-yl}-1H-benzimidazole hydrochloride], in experiment [1], the IC50 is at most 100 nM. Also, in experiment [2], the Ki is at most 100 nM.

In experiment [1], `CC(C)Cc1cn(Cc2nc(-c3nc4ccccc4[nH]3)cs2)c2cc(Cl)ccc12` [Example 40, 2-(2-{[6-Chloro-3-isobutyl-1H-indol-1-yl]methyl}-1,3-thiazol-4-yl)-1H-benzimidazole hydrochloride] gave a half-inhibitory concentration (IC50) of at most 100 nM. The Ki in experiment [2] is at most 100 nM.

Take `CC(C)Cc1nn(-c2nc(-c3nc4ccccc4[nH]3)cs2)c2cc(Cl)ccc12` [Example 39, 1-[4-(1H-Benzimidazol-2-yl)-1,3-thiazol-2-yl]-6-chloro-3-isobutyl-1H-indazole hydrochloride]: the IC50 in experiment [1] was at most 100 nM.

As for `CC(C)Cc1cn(-c2nc(C(=O)NCCCO)cs2)c2cc(Cl)ccc12` [Example 26, 2-[6-Chloro-3-isobutyl-1H-indol-1-yl]-N-(3-hydroxypropyl)-1,3-thiazole-4-carboxamide], the Ki in experiment [2] is at most 100 nM.

`CC(C)Cc1cn(-c2nc(NC(=O)C(C)(C)C)cs2)c2cc(Cl)ccc12` [Example 4, N-{2-[6-Chloro-3-isobutyl-1H-indoi-1-yl]-1,3-thiazol-4-yl}-2,2-dimethylpropanamide]: in experiment [1], the half-inhibitory concentration (IC50) is at most 100 nM.

For `CC(C)Cc1cn(-c2nc(C(N)=O)cs2)c2cc(Cl)ccc12` [Example 30, 2-[6-Chloro-3-isobutyl-1H-indol-1-yl]-1,3-thiazole-4-carboxamide], the Ki in experiment [2] is at most 100 nM.

Turning to `CC(C)Cc1cn(-c2nc(C(N)=O)cs2)c2cc(Br)ccc12` [Example 32, 2-[6-Bromo-3-isobutyl-1H-indol-1-yl]-1,3-thiazole-4-carboxamide], in experiment [2], the Ki is at most 100 nM.

On to `CC(C)Cc1cn(-c2nc(NC(=O)c3c(F)cccc3F)cs2)c2cc(Cl)ccc12` [Example 5, N-[2-(6-Chloro-3-isobutyl-1H-indol-1-yl)-1,3-thiazol-4-yl]-2,6-difluorobenzamide], for which the Ki in experiment [2] was at most 100 nM.

For the compound `CC(C)Cc1cn(-c2nc(C(=O)N3CCCC3)cs2)c2cc(Cl)ccc12` [Example 11, 6-Chloro-3-isobutyl-1-[4-(1-pyrrolidinylcarbonyl)-1,3-thiazol-2-yl]-1H-indole], the Ki in experiment [2] was at most 100 nM.
